Results on three molecules are retold here after publication PMC7482410 (ACS Omega, 2020).

The target in assay [1] is murine CCL2 (mCCL2-WT, MCP-1) (Mus musculus, UniProt P10148). Briefly: intrinsic Trp fluorescence quenching titration. In kind it is binding.
The target of assay [2] is human CCL2 (hCCL2-P8A, MCP-1) (Homo sapiens, UniProt P13500, P31A). Briefly: intrinsic Trp fluorescence quenching titration. In kind it is binding.
Assay [3] deals with human CCL2 (hCCL2-WT, MCP-1) (Homo sapiens, UniProt P13500). Briefly: intrinsic Trp fluorescence quenching titration. In kind it is binding.
Sequence of human CCL2 (hCCL2-WT, MCP-1) (P13500 24-99): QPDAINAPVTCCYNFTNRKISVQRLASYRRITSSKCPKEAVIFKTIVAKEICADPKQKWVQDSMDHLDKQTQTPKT
Assay [4] has as its target murine CCL2 (mCCL2-P8A, MCP-1) (Mus musculus, UniProt P10148, P31A). Briefly: intrinsic Trp fluorescence quenching titration. In kind it is binding.
Assay [5] concerns the target DDAH (Pseudomonas aeruginosa) (UniProt Q9I4E3). The note with it: cited from earlier work.
Assay [6] addresses murine CCL2 wild type (monocyte chemoattractant protein-1) (murine) (UniProt P10148). Briefly: NMR translational diffusion.

Sequence of DDAH (Q9I4E3 whole entry): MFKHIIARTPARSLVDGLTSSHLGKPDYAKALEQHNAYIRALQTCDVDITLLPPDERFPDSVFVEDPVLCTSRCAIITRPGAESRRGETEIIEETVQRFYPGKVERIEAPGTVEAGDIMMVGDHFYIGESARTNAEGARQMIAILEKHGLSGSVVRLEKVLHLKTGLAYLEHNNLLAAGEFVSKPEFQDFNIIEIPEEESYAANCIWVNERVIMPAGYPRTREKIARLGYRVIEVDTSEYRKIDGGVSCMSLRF
Sequence of human CCL2 (hCCL2-P8A, MCP-1) (P13500 24-99 P31A): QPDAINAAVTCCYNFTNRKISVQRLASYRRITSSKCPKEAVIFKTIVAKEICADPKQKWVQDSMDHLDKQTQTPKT
Sequence of murine CCL2 (mCCL2-P8A, MCP-1) (P10148 24-99 P31A limits assumed): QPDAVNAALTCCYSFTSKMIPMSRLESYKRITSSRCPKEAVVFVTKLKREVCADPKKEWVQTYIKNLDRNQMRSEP
Sequence of murine CCL2 (mCCL2-WT, MCP-1) (P10148 24-99 limits assumed): as the sequence (P10148 24-99 P31A limits assumed) above, with A8P counted along it

Usually Kd stands for the equilibrium constant for the complex coming apart. `O=C(O)[C@H]1O[C@@H](Oc2cc3oc(-c4ccccc4)cc(=O)c3c(O)c2O)[C@H](O)[C@@H](O)[C@@H]1O` [BA]: the dissociation constant (Kd) in assay [1] worked out at 290 ± 20 nM; in assay [2] it was 260 ± 20 nM; in assay [3], 250 ± 20 nM; in assay [4] it was 270 ± 20 nM.

With DDAH (from UniProt Q9I4E3), the Kd in assay [5] was 500 nM.

A word on the stoichiometry N: it is the number of molecules, sites or subunits per partner or assembly. Turning to “murine CCL2 wild type (monocyte chemoattractant protein-1) (from UniProt P10148 24-148) (natural protein)”, in assay [6], the stoichiometry N amounted to 2.
